Legend:
[1] = tested on: p21/WAF1/Cip1 in NIH 3T3 cells; conditions: NIH 3T3 cells pre-treated 24 h, eight days after E1A transfection; cited from earlier work
[2] = tested on: H4-Lys16 acetylation at THBS gene promoter/CpG island; test: PCR of ChIP DNA isolated with acetylated H4-Lys16 antibody; type: cell-based, human; conditions: lunasin-treated RWPE-1 (non-tumorigenic)
Description: (§1) THBS contains a CpG island within its promoter which together with other chemopreventative genes and tumor suppressors are frequently found to be hypermethylated during cancer formation. Since DNA hypermethylation of CpG islands is associated with histone hypoacetylation, we wanted to determine if there is a loss of H4-Lys16 acetylation within this region of the gene by conducting PCR on chromatin immunoprecipitated (ChiP) DNA using acetylated H4-Lys16 antibody and primers derived from the promoter/CpG island and exon 11 of the thrombospondin gene. […] The loss of H4-Lys16 acetylation on CpG island of the THBS promoter in tumor prostate cells leads to the silencing of the THBS gene and the inability of lunasin to increase H4-Lys16 acetylation and upregulate expression in tumorigenic cell lines.
(§2) THBS protein levels were determined in RWPE-1 and -2 cell lines treated with or without lunasin. PCR was conducted on ChIP DNA isolated with acetylated H4-Lys16 antibody, using primers derived from the promoter and exon 11 of the THBS gene.

female SENCAR mice = conditions: topical application; cited from earlier work
[3] = target: T1, histone H4 N-terminal tail lysines acetylated by p300 (Homo sapiens, UniProt P62805); test: In vitro histone acetylation (HAT) assay, p300; type: biochemical
T1 construct: Acid extracted histones from untreated Hela cells; endogenous in cells; host or cells: HeLa
Description: (§3) Inhibition of histone acetylation and hypoacetylated histones are by nature correlated with transcriptional silencing and downregulation of genes. How then can lunasin, which inhibits H3 and H4 N-terminal tail acetylation, act as a transcriptional activator? To answer this question, the inventors determined the effect of lunasin on the acetylation of specific lysine residues on the H4 N-terminal tail ([…]) using the PCAF, Hat1 and p300 histone acetylase enzymes and acid-extracted core histones as substrate.
(§4) Acid extracted histones from untreated Hela cells and purified recombinant histone H4 are used as templates in an in vitro histone acetylation (HAT) assay. Histone templates are pre-incubated in the presence or absence of 2 μM lunasin peptide for 30 min at RT before the addition of acetyl co-A, HAT reaction buffer and histone acetylase enzymes (p300, HAT1 and PCAF). HAT reaction mixture is incubated with shaking at 30° C. for 1 h before stopping the reaction by adding protein sample buffer and boiling for 5 min. Samples are run on 10-20% SDS-PAGE gels, blotted onto nitrocellulose membranes and immunostained with antibodies against histone H4 with specific N-terminal lysine acetylation sites at […], 8, 12 and 16. Densitometer readings are normalized using signals from untreated histone templates.

[4] = target: T2, histone H4 N-terminal tail lysines acetylated by PCAF (Homo sapiens, UniProt P62805); test: In vitro histone acetylation (HAT) assay, PCAF; type: biochemical; conditions: 2 μM lunasin
T2 construct: Acid extracted histones from untreated Hela cells; endogenous in cells; host or cells: HeLa
Description: as §3, §4

[5] = target: T3, histone H4 N-terminal tail lysines acetylated by Hat1 (Homo sapiens, UniProt P62805); test: In vitro histone acetylation (HAT) assay, Hat1; type: biochemical
T3 construct: Acid extracted histones from untreated Hela cells; endogenous in cells; host or cells: HeLa
Description: as §3, §4

[6] = tested on: C3H 10T1/2 mouse embryo fibroblast cells; conditions: C3H/T101/2 cells pre-treated 24 hour with lunasin (as little as 125 nM), then DMBA and MCA; six weeks assay; cited from earlier work
[7] = tested on: E1A-transfected mouse fibroblast NIH 3T3 cells; conditions: E1A-transfected NIH 3T3 cells; cited from earlier work
[8] = tested on: E1A-transfected C3H10T1/2 cells; conditions: cited from earlier work
[9] = tested on: UGT1A family of genes in HepG2 liver cells; test: UGT1A expression in HepG2 cells (Western blot, RT-PCR); type: cell-based; conditions: 24 h
Protocol: HepG2 liver cells are grown in cell culture in the presence or absence of 10 uM lunasin peptide. After 24 h exposure, cells are harvested and total protein and RNA are harvested. Western blots are immunostained with UGT1A1 antibody and densitometer signals normalized using actin controls. […] Real-time quantitative RT-PCR will be conducted to measure differences in transcription levels.

thrombospondin (THBS) = test: Western blot of THBS protein in RWPE-1 and RWPE-2 cells; type: cell-based, human
Description: as §1, §2

deacetylated histone H4 = deacetylated histone H4 (Homo sapiens, UniProt P62805); test: Binding to histone H4 (FIG. 8)
[10] = tested on: tumorigenic prostate epithelial cell line (RWPE-2); test: Microarray gene expression profile after 24 hour exposure to lunasin; type: cell-based, human
Protocol: (§5) In the present disclosure the investigators analyzed changes in gene expression profiles of normal (RWPE-1) and malignant (RWPE-2) prostate epithelial cell lines after 24 hour exposure to synthetic lunasin. Results disclosed herein support the anti-neoplastic property of lunasin and help elucidate its molecular mechanism. […] It is therefore reasoned that lunasin suppresses neoplastic transformation by up-regulating various genes.
(§6) To determine the genetic changes associated with lunasin treatment, the gene expression profiles of non-tumorigenic (RWPE-1) (SEQ ID No.2) and tumorigenic (RWPE-2) (SEQ ID No.2) prostate cells treated with synthetic lunasin were assessed using microarray analysis.

[11] = tested on: non-tumorigenic prostate epithelial cell line (RWPE-1); test: as above; type: cell-based, human
Protocol: as §5, §6

[12] = acid-extracted core histones, 2 μM lunasin
[13] = basal acid-extracted core histones, 2 μM lunasin
[14] = lunasin-treated acid-extracted core histones, 2 μM lunasin
[15] = recombinant H4, same in lunasin-treated and non-treated
[16] = RWPE-1, 24 hour exposure to 2 micromolar lunasin

For “lunasin: 43 amino acid small subunit of a soybean 2S albumin; residues 22-64 of SEQ ID NO:2 of U.S. Pat. No. 6,544,956; used as synthetic peptide”, the “increase in p21/WAF1/Cip1 protein levels” value [1] is given as “five-fold increase”, the “H4-Lys16 acetylation at THBS gene (ChIP PCR)” value [2] is given as “significant increase” and the skin tumorigenesis (female SENCAR mice) is given as “inhibited skin tumorigenesis”. The “H4-Lys12 acetylation by p300” value [3, 12] was “did not reduce”, the “inhibition of H4-Lys 8 acetylation by p300” value [3, 13] was 23.5% and the “increase in H4-Lys16 acetylation by p300” value [3, 14] was 22%. For the same substance, the “Lys16 acetylation by p300, recombinant H4 as substrate” value [3, 15] was “loss of Lys16 acetylation”, the “H4-Lys 5 acetylation by pCAF” value ([4]; acid-extracted core histones) was “did not reduce” and the “inhibition of H4-Lys 8 acetylation by PCAF” value ([4]; basal acid-extracted core histones) was 33%. The “H4-Lys 5 acetylation by Hat1” value [5, 12] was “did not reduce”, the “H4-Lys12 acetylation by Hat1” value [5, 12] was “did not reduce” and the “inhibition of H4-Lys 8 acetylation by Hat1” value [5, 13] was 30%. For the same substance, the “increase in H4-Lys16 acetylation by Hat1” value [5, 14] was 30%, the “Lys16 acetylation by Hat1, recombinant H4 as substrate” value [5, 15] was “loss of Lys16 acetylation” and the “reduction of foci formation” value [6] was 70%. For the same substance, the foci formation [7] was “suppress foci formation”, the apoptosis [8] was “induce apoptosis” and the “UGT1A1 protein levels (Western blot)” value ([9]; 10 uM lunasin) was “upregulates”. For the same substance, the “UGT1A1 expression (RT-PCR)” value ([9]; 10 μM lunasin) was “significant upregulation”, the “UGT1A3 expression (RT-PCR)” value ([9]; 10 μM lunasin) was “significant upregulation” and the “UGT1A6 expression (RT-PCR)” value ([9]; 10 μM lunasin) was “significant upregulation”. For the same substance, the “UGT1A10 expression (RT-PCR)” value ([9]; 10 μM lunasin) was “significant upregulation”, the “THBS protein level (Western blot)” value (thrombospondin (THBS); non-tumorigenic RWPE-1 cell line) was “upregulated” and the “THBS protein level (Western blot)” value (thrombospondin (THBS); tumorigenic RWPE-2 prostate cells) was “silenced”. The “binding preference for histone H4” value (deacetylated histone H4) was “preferentially binds to deacetylated histone H4”, the “Genes up-regulated (greater than twofold change)” value ([10]; RWPE-2, 2 μM lunasin for 24 hours, 14500 genes interrogated) was “only two genes were up-regulated” and the Genes down-regulated ([10]; tumorigenic epithelial cells, 2 μM lunasin) was “No genes were down-regulated”. The “Number of genes up-regulated (greater than twofold change)” value ([11]; RWPE-1, 2 μM lunasin for 24 hours, 14500 genes interrogated) was 121 genes, the “Fold-change BNIP3, NIP3” value [11, 16] was 2.05 and the “Fold-change BUB1B, BUBR1” value [11, 16] was 2.23. For the same substance, the “Fold-change ERBB2IP, ERBIN” value [11, 16] was 2.23, the “Fold-change MAD2L1” value [11, 16] was 2.12 and the “Fold-change PORIMIN” value [11, 16] was 2.26. The “Fold-change PRKAR1A, PKA” value [11, 16] was 2.45, the “Fold-change PRKCL2, PRK2” value [11, 16] was 2.33 and the “Fold-change PSMC6” value [11, 16] was 2.58. For the same substance, the “Fold-change RANBP2” value [11, 16] was 2.36, the “Fold-change SMURF2” value [11, 16] was 2.29 and the “Fold-change SPTLC1” value [11, 16] was 2.12. For the same substance, the “Fold-change THBS1, TSP1” value [11, 16] was 2.05, the “Fold-change TOB1” value [11, 16] was 2.32 and the “Fold-change TTK” value [11, 16] was 2.08. For the same substance, the “Fold-change UBE1C” value [11, 16] was 2.15, the “Fold-change USP1” value [11, 16] was 2.23 and the “SP3 expression in microarray” value ([11]; at 24 hours) was “upregulated”. The Genes down-regulated ([11]; non-tumorigenic epithelial cells, 2 μM lunasin) was “No genes were down-regulated” and the “p21/WAF1/Cip1 expression in microarray” value ([11]; within 24 hours) was “did not show upregulation”.
